The values below come from patent US6613308B2, “Pulmonary delivery in treating disorders of the central nervous system” (Advanced Inhalation Research, Inc., priority 2000, dated 2003).

For data set [1] the following is noted: cited from earlier work.
Data set [2] is described as follows: in vivo. The following applies: Sprague Dawley, rat, 7 mg powder.
For data set [3], the system named is rat model of Parkinson's disease (unilateral 6-OHDA lesion). As to the kind of experiment: Placing task. It counts as in vivo.
The test system is the same in data set [4]. The data set is described as follows: Akinesia task. It counts as in vivo.
The test system is the same in data set [5]. The data set is described as follows: Rotation test. It counts as in vivo. The method, then:
Animals also were tested on a standard pharmacodynamics rotation test known to be a sensitive and reliable measure of dopamine activity in the brain. […] These doses were chosen for this test because they represent the doses of L-Dopa shown to produce maximal efficacy in the previous functional tests. Following dosing, animals were placed into a cylindrical Plexiglas bucket. […] Animals were also tested for rotation behavior with and without pre-treatment with carbidopa. […] Because the dopamine depletions are unilateral, the uninjected side remained intact and still able respond to changes in dopamine activity. When these animals were injected with a dopamine agonist (i.e. L-Dopa) brain dopamine activity was stimulated preferentially on the intact side. […] The onset and number of rotations provided a measure of both the time course as well as the extent of increased dopamine activity.

A short description of data set [6]: in vivo. The note with it: rat; for bioavailability / bioavailability at 15 min / bioavailability at 60 min: 2 mg. The method, then: Determinations of plasma levels of L-Dopa were made following IV injection, oral gavage, or insufflation into the lungs. Carbidopa generally is administered to ensure that peripheral decarboxylase activity is completely shut down. In this example, animals received an intraperitoneal (IP) injection of the peripheral decarboxylase inhibitor carbidopa (200 mg/kg) 1 hour prior to administration of L-Dopa. Under ketamine anesthesia, the animals were divided into 3 groups. In the first group of animals, L-Dopa (2 mg) was suspended in saline containing 1% methylcellulose and 1% ascorbic acid and given via oral gavage. In the second group, an insufflation technique was used for pulmonary administration of particles including L-Dopa (20% loading density). A laryngoscope was used to visualize the rat's epiglottis and the blunt-tip insufflation device (PennCentury Insufflation powder delivery device) was inserted into the airway. A bolus of air (3 cc), from an attached syringe, was used to delivery the pre-loaded powder from the chamber of the device into the animal's lungs. A total of 10 mg of powder (2 mg L-Dopa) was delivered. In the third group, a previously-placed femoral cannula was used to delivery a bolus (2-3 second) of L-Dopa (2 mg). Blood samples (200 μL) were withdrawn from each animal using the femoral cannula at the following timepoints: 0 (immediately prior to L-Dopa administration), 2, 5, 15, 30, 60, 120, and 240 minutes following L-Dopa administration. All samples were processed for L-Dopa determinations using HPLC.
Bioavailability was estimated by performing area under the curve (AUC) calculations.

Data set [7] concerns rat model of Parkinson's disease (unilateral 6-OHDA lesion). The data set is described as follows: Bracing task. In kind it is in vivo.
In data set [8] the test system is migraine. The following applies: cited from earlier work.
For data set [9] the following is noted: cited from earlier work. This is another data set of the same source.

On to `CC(C(=O)O)c1cccc(C(=O)c2ccccc2)c1` (centres unmarked) [Ketoprofen], for which the “Tmax via the oral route” value in [1] (oral) is reported as “about 90 min”. In data set [2], this molecule yielded a concentration at 5 min of 9600 ng/mL, a concentration at 15 min of 7600 ng/mL, a concentration at 30 min of 5500 ng/mL and a concentration at 60 min of 4500 ng/mL. For the same molecule, in [2], the concentration at 120 min came to 2400 ng/mL, the concentration at 240 min is 1800 ng/mL, the concentration at 360 min came out at 1800 ng/mL and the concentration at 480 min amounted to 1300 ng/mL. In [2] (po), this molecule returned a concentration at 5 min of 1700 ng/mL, a concentration at 15 min of 2100 ng/mL, a concentration at 30 min of 1900 ng/mL and a concentration at 60 min of 2000 ng/mL. In [2] (po), this molecule had a concentration at 120 min of 1700 ng/mL, a concentration at 240 min of 1400 ng/mL, a concentration at 360 min of 1000 ng/mL and a concentration at 480 min of 1000 ng/mL.
Turning to `N[C@@H](Cc1ccc(O)c(O)c1)C(=O)O` [L-Dopa, levodopa], the “difference in drug required for equivalent efficacy, oral vs pulmonary” value in [3] (30 mg/kg oral vs 1 mg pulmonary, normalized by body weight) is around 10 fold. In addition, in data set [3] (oral 20 mg/kg), the “time of maximal effects” value was 60 min. Also, in [3] (oral 30 mg/kg), the “time of peak performance” value was in the range of 1 to 2 h and the “time to improved performance with impaired limb” value is at most 30 min. For the same molecule, the “lowest dose with significant improvements” value in data set [3] (pulmonary) stood at 0.5 mg. Also, in data set [3] (pulmonary, highest dose tested), the “time of peak benefits” value fell in the range of 15 to 30 min and the “time to significant improvements” value was at most 10 min. Also, in [4] (oral 30 mg/kg), the “time of maximal effects” value is at most 60 min and the “time to improved performance” value is at most 30 min. Besides, in data set [4] (pulmonary), the “lowest dose with statistically significant (p<0.05) improvements” value amounted to 1.0 mg, the “time of peak benefits” value lay in the range of 15 to 30 min and the “time to significant improvements” value was at most 10 min. For the same molecule, the “time of peak rotations” value in data set [5] (oral 30 mg/kg) was “approximately 30 minutes”. In data set [5] (oral 30 mg/kg, carbidopa pre-treatment), the “rotations during the first 10-15 minutes” value is reported as below 5 rotations/animal. The “time of peak rotations” value in data set [5] (pulmonary 2 mg total) lay within 25 to 30 min. In [5] (pulmonary 2 mg total vs oral 30 mg/kg), the “rotations relative to oral delivery within the first 10-15 minutes” value was “greater than 3 times”. In [6], this molecule had a concentration at 2 min of 5000 ng/mL, a bioavailability of around 75%, a bioavailability at 15 min of 38% and a bioavailability at 60 min of 62%. In data set [6] (po), the concentration at 2 min stood at 1000 ng/mL, the bioavailability worked out at 33%, the bioavailability at 15 min was 9% and the bioavailability at 60 min is 24%. In addition, in data set [7] (oral 30 mg/kg), the “time of maximal effects” value was at most 60 min and the “time to improved performance” value is at most 30 min. Further, in data set [7] (pulmonary), the “lowest dose with statistically significant improvements” value is 0.5 mg, the “time of peak benefits” value was 15 to 30 min and the “time to significant improvements” value is at most 10 min.
As for `CNS(=O)(=O)Cc1ccc2[nH]cc(CCN(C)C)c2c1` [sumatriptan], the efficacy rate in data set [8] (administered intravenously (IV)) is 90%. The efficiency rate result in data set [8] (oral form) is listed as “approximately 60%”.
As to `Cc1nnc2n1-c1ccc(Cl)cc1C(c1ccccc1Cl)=NC2` [triazolam], in [9] (alcohol), the solubility in alcohol result is “soluble”. Moreover, the solubility in water entry in data set [9] (water) was “poorly soluble”.
As for `Cc1ccc(-c2nc3ccc(C)cn3c2CC(=O)N(C)C)cc1` [zolpidem], in data set [1] (5 mg tablet), the Tmax was 1.6 h and the “½ Life” value was 2.6 h. Further, the “time to peak plasma levels” value in [1] (in vivo) is “about 2 hours”.
